According to US4451464A, “Trifluoromethyl substituted tricyclic quinazolinones useful as tranquilizers” (Sandoz, Inc., priority 1982, dated 1984):

Molecular target: calf brain benzodiazepine receptors (calf brain cortex)
Experiment: Flunitrazepam Receptor Binding Assay, FBA TEST No. 2 (inhibition of specific 3H-flunitrazepam binding)
Conditions: 1.5 nM [3H]-Flunitrazepam, 15 min at 0° C., read-out: IC50 (concentration which inhibits specific binding of 3H-Flunitrazepam by 50%)
Description: Substantially similar results are obtainable in a Flunitrazepam Receptor Binding Assay as described by Chang et al., Eur. J. Pharmacol., 48, 213 (1978): when carried out with the non-substantive modifications evident from the following description (hereinafter FBA TEST No. 2): Fresh calf brain cortex is homogenized in a 19 fold volume of Tris-HCl buffer pH 7.4, using a Brinkman Polytron PT 20 and centrifuged at 50'000 g for […]. The pellets are frozen at -20° C. and resuspended in a 400 fold volume of Tris-buffer pH 7.4 before use for the binding assay. The assay mixtures consist of 1.8 ml of homogenate (corresponding to 4.5 mg of original tissue), 0.1 ml [^3 H]-Flunitrazepam (final concentration 1.5 nM), and 0.1 ml of buffer for determination of total binding or 0.1 ml of unlabelled Flunitrazepam (final concentration 1 μM) for determination of nonspecific binding, respectively. To assess the potency of various drugs in inhibiting specific binding, drugs are added (instead of buffer) to give 5 to 9 different concentrations between 1 nM and 10 μM, each in duplicate. After incubation for 15 min at 0° C., the assay mixtures are rapidly filtered through Whatman GF/B filters and washed twice with 5 ml of ice cold Tris-buffer. The filters are counted in Rialuma on a LKB Rach-Beta Liquid Scintillation Counter. […]

Work on CCCCN1CCn2c1nc1ccc(C(F)(F)F)cc1c2=O [Example 2, 1-n-butyl-7-trifluoromethyl-2,3-dihydro-imidazo[2,1-b]quinazolin-5(1H)-one] yielded an IC50 of 15 nM.
